Data set [1] can be described thus: Dissociation constant, pKa of the compound. It counts as physicochemical.
In data set [2] the target is T1, Carbonic anhydrase 2 (Homo sapiens, UniProt P00918).
Description: Inhibition of human carbonic anhydrase 2 by 4-NPA hydrolysis assay
Data set [3] has as its target T1, Carbonic anhydrase 2. This is another data set of the same source.
Description: Binding affinity to human carbonic anhydrase 2 in presence of 10 mM HEPES and 100 uM Na2SO4 at pH 7.5 by ThermoFluor method
Data set [4] addresses T1, Carbonic anhydrase 2. This is another data set of the same source.
Description: Binding affinity to human carbonic anhydrase 2 in presence of 10 mM HEPES without Na+ at pH 7.5 by ThermoFluor method
The target in data set [5] is T1, Carbonic anhydrase 2. The source holds these as a separate data set.
Description: Binding affinity to human carbonic anhydrase 2 in presence of 10 mM PIPES and 100 uM Na2SO4 at pH 7.0 by ThermoFluor method
In data set [6] the target is T1, Carbonic anhydrase 2. The source holds these as a separate data set.
Description: Binding affinity to human carbonic anhydrase 2 in presence of 10 mM PIPES and 200 uM NaCl at pH 7.0 by ThermoFluor method
Data set [7] deals with T1, Carbonic anhydrase 2. This is another data set of the same source.
Description: Binding affinity to human carbonic anhydrase 2 in presence of 10 mM PIPES without Na+ at pH 7.0 by ThermoFluor method

Usually pKa stands for the negative logarithm of the acid dissociation constant. A lower pKa goes with a group that gives up its proton readily. Consider `CC1(C)O[C@@H]2[C@@H](CO[C@@]3(CNS(N)(=O)=O)OC(C)(C)O[C@@H]23)O1`, for which the pKa in data set [1] turned out to be 10.7.
Still for that read-out and setting: the figure for `CC1(C)O[C@@H]2[C@@H](CO[C@@]3(COS(N)(=O)=O)OC(C)(C)O[C@@H]23)O1` [TOPIRAMATE] is 8.7.
In general, Ki refers to the dissociation constant of the complex between target and ligand, obtained from inhibition or displacement. Usually Kd stands for the concentration at which binding is half-saturated. In turn, `CC1(C)O[C@H]2[C@@H]3OCO[C@@H]3CO[C@@]2(CNS(N)(=O)=O)O1` displayed a Ki at Carbonic anhydrase 2 [2] of 300 µM. The Kd on Carbonic anhydrase 2 [3], at Carbonic anhydrase 2 [4], at Carbonic anhydrase 2 [5], on Carbonic anhydrase 2 [6] and on Carbonic anhydrase 2 [7] was > 57 µM throughout.
